Assays:
Akt kinase = assay: Selectivity profile: Akt kinase; assay type: biochemical; details: for activity against Akt kinase: no significant inhibition at 100 μM
p38α = p38α (Homo sapiens, UniProt Q16539); assay: Selectivity profile: p38α kinase; assay type: biochemical
lethal factor (LF) = lethal factor (LF) (Bacillus anthracis, UniProt P15917); assay: biochemical; assay type: biochemical
Furin = Furin (Homo sapiens, UniProt P09958); assay: Selectivity profile: furin protease; assay type: biochemical
Furin, sequence (P09958 108-794, species assumed): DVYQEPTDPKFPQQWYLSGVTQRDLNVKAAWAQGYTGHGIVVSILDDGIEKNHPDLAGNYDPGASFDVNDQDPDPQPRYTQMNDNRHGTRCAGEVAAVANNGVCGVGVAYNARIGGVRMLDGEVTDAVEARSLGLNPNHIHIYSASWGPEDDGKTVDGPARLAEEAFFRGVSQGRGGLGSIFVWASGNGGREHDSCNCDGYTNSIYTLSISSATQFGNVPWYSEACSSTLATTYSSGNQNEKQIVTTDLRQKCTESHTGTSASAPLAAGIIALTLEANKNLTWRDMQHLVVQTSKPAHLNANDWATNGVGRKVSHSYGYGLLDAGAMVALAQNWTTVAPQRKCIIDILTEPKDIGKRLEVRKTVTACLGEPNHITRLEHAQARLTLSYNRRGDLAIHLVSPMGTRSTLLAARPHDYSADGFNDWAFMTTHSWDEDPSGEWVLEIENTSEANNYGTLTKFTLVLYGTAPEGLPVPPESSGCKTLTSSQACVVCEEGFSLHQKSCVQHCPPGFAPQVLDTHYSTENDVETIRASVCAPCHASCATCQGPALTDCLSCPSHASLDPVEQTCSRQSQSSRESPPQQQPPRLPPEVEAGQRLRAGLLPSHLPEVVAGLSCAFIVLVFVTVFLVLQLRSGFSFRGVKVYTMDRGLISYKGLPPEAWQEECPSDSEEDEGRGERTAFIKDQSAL

GST-JNK1 = GST-JNK1 (Homo sapiens, UniProt P45983); assay: pepJIP1 DELFIA displacement assay; assay type: binding
GST-JNK1, sequence (P45983 whole entry): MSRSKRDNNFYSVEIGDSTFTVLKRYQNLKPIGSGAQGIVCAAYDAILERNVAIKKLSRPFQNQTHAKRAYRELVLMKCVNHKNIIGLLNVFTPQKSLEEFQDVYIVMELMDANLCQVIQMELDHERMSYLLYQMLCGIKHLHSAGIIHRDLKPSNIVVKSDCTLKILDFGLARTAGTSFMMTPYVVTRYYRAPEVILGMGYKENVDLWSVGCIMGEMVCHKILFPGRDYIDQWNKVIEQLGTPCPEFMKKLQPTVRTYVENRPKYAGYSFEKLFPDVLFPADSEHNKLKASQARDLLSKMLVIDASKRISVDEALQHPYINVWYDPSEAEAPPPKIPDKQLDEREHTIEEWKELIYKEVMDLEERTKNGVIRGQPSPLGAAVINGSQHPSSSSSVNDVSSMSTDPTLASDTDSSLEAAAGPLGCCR

JNK = JNK (Homo sapiens, UniProt P45983); assay: LanthaScreen kinase activity assay; assay type: biochemical
JNK, sequence (P45983 whole entry): as above

lethal factor (LF), sequence (P15917 34-809 limits assumed): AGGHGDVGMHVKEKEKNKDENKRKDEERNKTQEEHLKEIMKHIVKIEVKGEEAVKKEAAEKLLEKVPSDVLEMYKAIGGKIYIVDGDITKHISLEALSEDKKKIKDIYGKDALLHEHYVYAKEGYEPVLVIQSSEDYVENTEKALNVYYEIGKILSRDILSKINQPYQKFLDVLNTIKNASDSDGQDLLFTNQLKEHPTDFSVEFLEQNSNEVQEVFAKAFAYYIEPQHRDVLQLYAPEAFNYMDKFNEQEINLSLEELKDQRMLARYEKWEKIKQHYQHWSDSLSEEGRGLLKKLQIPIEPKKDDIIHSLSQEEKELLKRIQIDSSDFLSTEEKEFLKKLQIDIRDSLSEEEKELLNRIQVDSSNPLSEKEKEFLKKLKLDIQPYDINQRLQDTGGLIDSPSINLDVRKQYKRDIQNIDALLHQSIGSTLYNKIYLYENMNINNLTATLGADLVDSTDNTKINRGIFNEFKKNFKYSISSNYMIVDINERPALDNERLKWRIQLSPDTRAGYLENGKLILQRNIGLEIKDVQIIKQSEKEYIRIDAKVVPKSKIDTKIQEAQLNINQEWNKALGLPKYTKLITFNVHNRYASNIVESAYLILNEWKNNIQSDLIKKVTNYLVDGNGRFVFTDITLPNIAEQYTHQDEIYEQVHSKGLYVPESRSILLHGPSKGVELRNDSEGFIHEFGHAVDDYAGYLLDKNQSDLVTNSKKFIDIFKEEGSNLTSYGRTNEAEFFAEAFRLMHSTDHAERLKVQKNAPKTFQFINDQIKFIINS
p38α, sequence (Q16539 whole entry): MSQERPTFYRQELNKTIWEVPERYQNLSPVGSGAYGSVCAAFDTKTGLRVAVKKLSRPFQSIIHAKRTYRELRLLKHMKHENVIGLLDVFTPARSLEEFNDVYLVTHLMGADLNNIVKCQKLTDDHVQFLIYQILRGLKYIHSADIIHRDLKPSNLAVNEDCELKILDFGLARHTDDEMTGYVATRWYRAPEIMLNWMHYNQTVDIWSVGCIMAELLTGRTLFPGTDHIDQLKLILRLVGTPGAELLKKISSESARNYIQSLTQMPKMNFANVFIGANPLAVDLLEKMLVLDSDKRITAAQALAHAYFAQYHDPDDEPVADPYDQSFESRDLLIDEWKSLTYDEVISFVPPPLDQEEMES

## O=[N+]([O-])c1cnc(Sc2nc3ccccc3s2)s1 [BI-87G3, 2-(5-nitrothiazol-2-ylthio)benzo[d]thiazole]
Akt kinase
  Akt, inhibition at 100 μM: 2% inhibition at 100 μM
  activity against Akt kinase: inactive
p38α
  times less active against p38α (vs JNK): at least 50 times
Lethal factor (LF)
  IC50: > 100 µM
  activity against lethal factor: inactive
Furin
  activity against furin: inactive

## Cn1c(Sc2nc3ccc(Cl)cc3s2)nnc1-c1ccc2ncccc2c1 [BI-87F12]
GST-JNK1
  IC50: > 100 µM

## O=[N+]([O-])c1cnc(Sc2nc3cc(Cl)ccc3s2)s1 [BI-87F2]
JNK
  activity in kinase assay / JNK inhibition: inactive

## Cn1c(Sc2nc3ccc(Cl)cc3s2)nnc1-c1ccc(Cl)cc1Cl [BI-87G12]
GST-JNK1
  IC50: > 100 µM

## O=[N+]([O-])c1cnc(Sc2nc3ccc(Cl)cc3s2)s1 [BI-87F8]
JNK
  activity in kinase assay / JNK inhibition: inactive

## Cn1c(Sc2nc3ccc(Cl)cc3s2)nnc1-c1cccs1 [BI-87F11]
GST-JNK1
  IC50: > 100 µM

## Nc1ncnc2nc(Sc3ncc([N+](=O)[O-])s3)[nH]c12 [BI-87C10]
JNK
  activity in kinase assay / JNK inhibition: none of these were good JNK inhibitors
GST-JNK1
  IC50: < 1 µM

## O=[N+]([O-])c1cnc(Sc2nc3cc(S(=O)(=O)O)ccc3[nH]2)s1 [BI-87H1]
GST-JNK1
  IC50: > 100 µM

## O=C(O)c1ccc(CSc2nc3ccccc3[nH]2)cc1 [BI-87D4]
GST-JNK1
  IC50: > 100 µM

## Cn1c(Sc2ncc([N+](=O)[O-])s2)nc2ccccc21 [BI-87F7]
JNK
  activity in kinase assay / JNK inhibition: no activity

## COc1ccc2sc(Sc3ncc([N+](=O)[O-])s3)nc2c1 [BI-87D11]
Akt kinase
  Akt, inhibition at 100 μM: 5% inhibition at 100 μM
  activity against Akt kinase: inactive
p38α
  times less active against p38α (vs JNK): at least 50 times
Lethal factor (LF)
  IC50: > 100 µM
  activity against lethal factor: inactive
Furin
  activity against furin: inactive

## CCOc1ccc2nc(Sc3ncc([N+](=O)[O-])s3)sc2c1 [BI-87G2]
JNK
  activity in kinase assay / JNK inhibition: inactive
GST-JNK1
  IC50: > 100 µM

## Nc1ncnc2[nH]c(SCc3ccc(C(=O)O)cc3)nc12 [BI-87C7]
JNK
  activity in kinase assay / JNK inhibition: none of these were good JNK inhibitors
GST-JNK1
  IC50: > 100 µM
